The pIC50 is the IC50 on a negative log10 scale, so that one unit is a factor of ten.

For test [1], the target named is T1, oxytocin receptors (rat uterus membranes) (Rattus norvegicus, UniProt P70536).
T1 construct: The resulting pellet containing the oxytocin receptors is resuspended; from tissue; host or cells: uterus membranes of DES-treated female Sprague-Dawley rats
T1 sequence (P70536 1-388): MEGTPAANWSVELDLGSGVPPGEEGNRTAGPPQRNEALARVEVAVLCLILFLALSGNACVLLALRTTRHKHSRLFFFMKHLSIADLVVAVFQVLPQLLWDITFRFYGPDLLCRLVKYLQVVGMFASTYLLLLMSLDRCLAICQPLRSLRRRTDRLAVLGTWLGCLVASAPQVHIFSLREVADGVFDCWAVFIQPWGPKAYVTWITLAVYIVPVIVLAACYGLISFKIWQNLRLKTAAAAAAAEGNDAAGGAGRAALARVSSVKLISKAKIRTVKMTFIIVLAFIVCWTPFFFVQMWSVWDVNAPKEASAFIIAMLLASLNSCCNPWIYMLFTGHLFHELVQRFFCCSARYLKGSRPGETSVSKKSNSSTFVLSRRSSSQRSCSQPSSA
The test is described as follows: Oxytocin Receptor Binding. Set-up: species or system female Sprague-Dawley rats. The procedure:
Female Sprague-Dawley rats weighing approximately 200-250 g are injected intramuscularly (i.m.) with 0.3 mg/kg of body weight of diethylstilbestrol (DES). The rats are sacrificed 18 hours later under pentobarbital anesthesia. The uteri are dissected out, cleaned of fat and connective tissues and rinsed in 50 ml of normal saline. The tissue pooled from six rats is homogenized in 50 ml of […] Tris.HCl, containing 0.5 mM dithiothreitol and 1.0 mM EDTA, adjusted to pH 7.4, using a polytron at setting 6 with three passes of 10 sec each. The homogenate is passed through two (2) layers of cheesecloth and the filtrate centrifuged at 1000×g for 10 min. The clear supernatant is removed and recentrifuged at 165,000×g for 30 min. The resulting pellet containing the oxytocin receptors is resuspended in 50.0 mM Tris.HCl containing 5.0 mM MgCl2 at pH 7.4, to give a protein concentration of 2.5 mg/ml of tissue suspension. This preparation is used in subsequent binding assays with [^3 H]Oxytocin.
Binding of 3,5-[^3 H]Oxytocin ([^3 H]OT) to its receptors is done in microtiter plates using [^3 H]OT, at various concentrations, in an assay buffer of 50.0 mM Tris.HCl, pH 7.4 and containing 5.0 mM MgCl2, and a mixture of protease inhibitors: BSA, 0.1 mg; aprotinin, 1.0 mg; 1,10-phenanthroline, 2.0 mg; […], 10.0 mg; and PMSF, 0.3 mg per 100 ml of buffer solution. Non-specific binding is determined in the presence of 1.0 uM unlabeled OT. The binding reaction is terminated after 60 min., at 22° C., by rapid filtration through glass fiber filters using a Brandel® cell harvester (Biomedical Research and Development Laboratories, Inc., Gaithersburg, Md.). Competition experiments are conducted at equilibrium using 1.0 nM [^3 H]OT and varying the concentration of the displacing agents. The concentrations of agent displacing 50% of [^3 H]OT at its sites (IC50) are calculated by a computer assisted LUNDON-2 program (LUNDON SOFTWARE INC., Ohio, USA).

In test [2] the target is vasopressin V1 receptor (rat liver plasma membranes) (Rattus norvegicus, UniProt P30560). The test is described as follows: Binding Assay to Rat Hepatic V1 Receptors. Particulars: for pIC50: rat hepatic V1; for inhibition at 10 µM: 2 h, rat hepatic, read-out: V1, % at concentration in brackets.
The target in test [3] is T2, rat kidney medullary V2 receptors (Rattus norvegicus, UniProt Q00788).
T2 construct: Medullary tissues from rat kidneys are dissected out; from tissue; host or cells: rat kidney medulla membranes
The test is described as follows: Binding Assay to Rat Kidney Medullary V2 Receptors. As to conditions: for pIC50: rat kidney medullary V2; for inhibition at 10 µM: rat kidney, read-out: V2, % at concentration in brackets. Put shortly: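 Competition binding: [3H]AVP at 0.8 nM, test compounds from 50% DMSO, and membranes from rat kidney medulla, left 120 min on the bench. Filtration then liquid scintillation counting measured bound ligand; 1.0 μM unlabeled ligand set non-specific binding.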

In the next test the test system is vasopressin V2. The test is described as follows: Vasopressin V2 Antagonist Activity in Conscious Hydrated Rats (diuretic effect). The format is in vivo, normal Sprague-Dawley rats. As to conditions: AVP 0.4 μg/kg i.p. The procedure, abridged: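 Conscious rats were dosed orally at 0.1–100 mg/kg, and AVP 0.4 μg/kg i.p. in peanut oil followed 1 h later. Urine volume, osmolality and Na/K/Cl were compared against AVP-treated controls, with non-AVP rats as water-loading controls.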

The subject of the next test is vasopressin V1. The test is described as follows: Vasopressin V1 Antagonist Activity in Conscious Rats (vasopressin vasopressor response). The test is classed as in vivo, rat (spontaneously hypertensive rats). Put shortly: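 Conscious rats had the ventral caudal tail artery cannulated into the lower abdominal aorta under local procaine anesthesia, plus a caudal vein cannula for intravenous dosing. Pulsatile blood pressure was recorded via a Statham P23Db transducer. Vasopressor responses to vasopressin injections were measured before and after compound dosing, with percent antagonism calculated relative to the pre-drug response taken as 100%.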

pIC50: −log10 of the molar value.

Sequence of vasopressin V1 receptor (rat liver plasma membranes) (P30560 whole entry): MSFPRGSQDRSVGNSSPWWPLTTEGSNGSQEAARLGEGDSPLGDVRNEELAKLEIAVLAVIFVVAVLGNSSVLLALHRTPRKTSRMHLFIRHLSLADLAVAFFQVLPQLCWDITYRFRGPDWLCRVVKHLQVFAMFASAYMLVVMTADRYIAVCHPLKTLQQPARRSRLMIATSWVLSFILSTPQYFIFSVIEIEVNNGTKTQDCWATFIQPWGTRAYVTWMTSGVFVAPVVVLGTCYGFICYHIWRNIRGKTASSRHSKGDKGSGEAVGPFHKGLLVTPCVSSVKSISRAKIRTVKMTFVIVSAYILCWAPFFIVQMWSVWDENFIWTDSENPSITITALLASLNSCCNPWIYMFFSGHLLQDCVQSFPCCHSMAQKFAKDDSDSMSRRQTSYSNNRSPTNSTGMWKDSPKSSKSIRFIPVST
T2 sequence (Q00788 whole entry): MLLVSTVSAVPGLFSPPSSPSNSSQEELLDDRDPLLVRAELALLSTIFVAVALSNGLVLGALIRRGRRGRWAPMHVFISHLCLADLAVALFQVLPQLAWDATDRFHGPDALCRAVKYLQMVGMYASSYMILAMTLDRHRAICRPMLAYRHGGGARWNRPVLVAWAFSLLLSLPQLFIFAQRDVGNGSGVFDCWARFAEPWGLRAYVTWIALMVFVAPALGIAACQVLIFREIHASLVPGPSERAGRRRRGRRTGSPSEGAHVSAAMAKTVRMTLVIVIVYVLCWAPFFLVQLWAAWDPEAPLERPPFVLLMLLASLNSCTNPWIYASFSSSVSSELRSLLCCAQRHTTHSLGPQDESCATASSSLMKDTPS

In test [1], `Cc1cccc(C(=O)Nc2ccc(C(=O)N3Cc4ccccc4Cc4ccccc43)cc2)c1C` [Example 11, N-[4-[(6,11-Dihydro-5H-dibenz[b,e]azepin-5-yl)carbonyl]phenyl]-2,3-dimethylbenzamide] had an inhibition at 10 µM of 71%. In addition, the pIC50 in test [1] (first part of Table V) was 5.36; in test [2], 6.80; in test [3], 7.48. In the test with vasopressin V2 (30 mg/kg orally), this compound registered an Osmolality of 1114 ± 55 mOsm/kg. In addition, the “Urine Volume” value in the test on vasopressin V2 (30 mg/kg orally) came out at 9.7 ± 0.6 ml/4 hrs.
Consider `Cc1ccccc1C(=O)Nc1ccc(C(=O)N2CCc3cnoc3-c3ccccc32)cc1` [Example 345, N-[4-[(4,5-Dihydro-6H-isoxazolo[4,5-d][1]benzazepin-6-yl)carbonyl]phenyl]-2-methylbenzamide], for which the inhibition at 10 µM in test [1] came to 2%; in test [2], 99%; in test [3], 81%.
The matching figures for `O=C(c1ccc(NS(=O)(=O)c2ccccc2Cl)cc1)N1Cc2ccccc2Cc2ccccc21` [Example 450, 5-[4-[[(2-Chlorophenyl)sulfonyl]amino]benzoyl]-6,11-dihydro-5H-dibenz [b,e]azepine]: 33%, 87% and 29%.
In the case of `CN(C)CC(=O)Nc1ccc(C(=O)N2Cc3ccccc3Cc3ccccc32)cc1` [Example 454], the values for the inhibition at 10 µM in test [1], in test [2] and in test [3] were 78%, 64% and 33%, respectively. The same compound had a pIC50 in test [1] (second part of Table V) of 5.60.
Turning to `O=C(Nc1ccc(C(=O)N2Cc3ccccc3Cc3ccccc32)cc1)c1cc(Cl)cc(Cl)c1Cl` [Example 249, N-[4-[(6,11-Dihydro-5H-dibenz[b,e]azepin-5-yl)-carbonyl]phenyl]-2,3 5-trichlorobenzamide], the inhibition at 10 µM in test [1] came out at 38%; in test [2] it was 61%; in test [3], 88%.
In the case of `Cc1c(F)cccc1C(=O)Nc1ccc(C(=O)N2CCc3c[nH]nc3-c3ccccc32)c(Cl)c1` [Example 582], the values for the pIC50 in test [1] (second part of Table V), in test [2] and in test [3] were 6.56, 5.89 and 8.28, respectively.
Turning to `O=C(Nc1ccc(C(=O)N2Cc3ccccc3Cc3ccccc32)c(Cl)c1)c1ccc(Cl)cc1Cl` [Example 256, N-[4-[(6,11-Dihydro-5H-dibenz[b,e]azepin-5-yl)-carbonyl]-3-chlorophenyl]-2,4-dichlorobenzamide], the inhibition at 10 µM in test [1] was 47%. Besides, the pIC50 in test [1] (first part of Table V) is 5.19; in test [2], 7.00; in test [3] it was 7.27.
`Cc1ccccc1COC(=O)c1ccc(C(=O)N2Cc3ccccc3Cc3ccccc32)cc1` [Example 266, (2-Methylphenyl)methyl 4-[(6,11-dihydro-5H-dibenz[b,e]azepin-5-yl)carbonyl)benzoate]: the inhibition at 10 µM in test [1] amounted to 15%. In the test on vasopressin V1 (30 mg/kg i.v.), the “MAX % Inhibition” value turned out to be 21% and the “Time of max % inhibition” value is 120 min. In addition, in the test on vasopressin V2 (10 mg/kg orally), the Osmolality is 1186 mOsm/kg and the “Urine Volume” value came to 4.3 ml/4 hrs.
As for `O=C(Nc1ccc(C(=O)N2CCc3c[nH]nc3-c3ccccc32)cc1)c1ccc(Cl)cc1Cl` [Example 583, N-[4-[(4,5-Dihydropyrazolo[4,3-d][1]benzazepin-6(2H)-yl)carbonyl]phenyl]-2,4-dichlorobenzamide], in test [1], the inhibition at 10 µM was 95%. Also, the pIC50 is 6.48 in test [1] (second part of Table V), 7.09 in test [2] and 7.40 in test [3].
`Cc1c(F)cccc1C(=O)Nc1ccc(C(=O)N2Cc3ccccc3Cc3ccccc32)cc1` [Example 254, N-(4-[(6,11-Dihydro-5H-dibenz[b,e]azepin-5-yl)-carbonyl]phenyl]-2-methyl-3-fluorobenzamide]: the inhibition at 10 µM in test [1] turned out to be 95%. For the same compound, the pIC50 in test [1] (first part of Table V) is 5.72; in test [2], 7.00; in test [3], 7.43. In the test on vasopressin V1 (30 mg/kg i.v.), the “MAX % Inhibition” value is 74%. Besides, the “Time of max % inhibition” value in the test with vasopressin V1 (30 mg/kg i.v.) turned out to be 60 min.
As for `O=C(Nc1ccc(C(=O)N2Cc3ccccc3Cc3ccccc32)cc1)c1ccc(Cl)c(Cl)c1` [Example 250, N-[4-[(6,11-Dihydro-5H-dibenz[b,e]azepin-5-yl)-carbonyl]phenyl]-3,4-dichlorobenzamide], the inhibition at 10 µM in test [1] amounted to 15%; in test [2], 62%; in test [3] it was 77%. Besides, in the test with vasopressin V2 (30 mg/kg orally), the Osmolality is on record as 1378 mOsm/kg. Further, in the test on vasopressin V2 (30 mg/kg orally), the “Urine Volume” value worked out at 6.5 ml/4 hrs.
On to `Cc1cccc(C(=O)Nc2ccc(C(=O)N3Cc4ccccc4Cc4cc(Cl)ccc43)cc2)c1C` [Example 138, N-[4-[(2-Chloro-6,11-dihydro-5H-dibenz[b,e]azepin-5-yl)carbonyl]phenyl]2,3-dimethylbenzamide], for which, in the test on vasopressin V1 (10 mg/kg i.v.), the “MAX % Inhibition” value is 88% and the “Time of max % inhibition” value was 60 min. This compound had a pIC50 in test [2] of 7.34. Further, the pIC50 in test [3] was 7.29. Besides, in the test with vasopressin V2 (30 mg/kg orally), the Osmolality was found to be 380 mOsm/kg and the “Urine Volume” value is 13.8 ml/4 hrs.
Turning to `Cc1ccccc1C(=O)N(C)c1ccc(C(=O)N2Cc3ccccc3Cc3ccccc32)cc1` [Example 167, N-[4-[ (6,11-Dihydro-5H-dibenz[b,e]azepin-5-yl)carbonyl]phenyl]-N-methyl-2-methylbenzamide], in the test with vasopressin V1 (10 mg/kg i.v.), the “MAX % Inhibition” value is on record as 70% and the “Time of max % inhibition” value was found to be 180 min. Also, the pIC50 in test [2] is 6.29. This compound showed a pIC50 in test [3] of 6.37. In the test on vasopressin V2 (30 mg/kg orally), the Osmolality worked out at 1544 mOsm/kg and the “Urine Volume” value stood at 2 ml/4 hrs.
As for `Cc1ccccc1C(=O)Nc1ccc(C(=O)N2Cc3ccccc3Cc3cc(Cl)ccc32)cc1` [Example 136], in the test with vasopressin V1 (10 mg/kg i.v.), the “MAX % Inhibition” value came out at 81% and the “Time of max % inhibition” value was 30 min. The compound also had a pIC50 in test [2] of 7.80. This compound had a pIC50 in test [3] of 7.57. Further, in the test on vasopressin V2 (30 mg/kg orally), the Osmolality is listed as 306 mOsm/kg and the “Urine Volume” value turned out to be 19 ml/4 hrs.

The values above are taken from patent US5834461A, “Tricyclic benzazepine vasopressin antagonists” (American Cyanamid Company, priority 1997, dated 1998).
